Values after ≈ are worked out from the molar mass of the structure shown.
Tests used:
Type in all cases: functional
Conditions in all cases: read-out: ED50 (the source's name)
KB = assay: Cytotoxicity against human KB cells
P388 = assay: Cytotoxicity against mouse P388 cells
A549 = assay: Cytotoxicity against human A549 cells
HCT-8 = assay: Cytotoxicity against human HCT8 cells

Structure (SMILES): COC(=O)[C@]12OC[C@]34[C@H]([C@@H](O)[C@@H]1O)[C@@]1(C)[C@H](O)C(=O)C=C(C)[C@@H]1C[C@H]3OC(=O)[C@H](OC(=O)/C=C(\C)C(C)(C)OC(C)=O)[C@@H]24 [Bruceanol C]
- EC50 (KB): < 0.04 µg/mL
- EC50 (P388): 0.56 µg/mL (≈ 0.923 µM)
- EC50 (A549): 0.48 µg/mL (≈ 0.791 µM)
- EC50 (HCT-8): < 0.4 µg/mL

— ChEMBL document CHEMBL1150753, “Antitumor agents, 93. Bruceanol C, a new cytotoxic quassinoid from Brucea antidysenterica” (1988)
